Results on 14 compounds are retold here after patent US20160009725A1, “PYRROLO- AND PYRAZOLO-TRIAZOLODIAZEPINES AS BET-PROTEIN INHIBITORS FOR TREATING HYPERPROLIFERATIVE DISEASES” (BAYER PHARMA AKTIENGESELLSCHAFT, priority 2013, published 2016).

By IC50 is commonly meant the concentration that gives 50% inhibition.

One experiment deals with B16F10 cells. In words: Cell proliferation assay (alamarBlue), B16F10. The settings on record: Mus musculus, B16-F10, melanoma (BRAF wild-type), 96 hours incubation. It counts as cell-based. The procedure: (§1) In accordance with the invention, the ability of the substances to inhibit cell proliferation was determined Cell viability was determined by means of the alamarBlue® reagent (Invitrogen) in a Victor ×3 Multilabel Reader (Perkin Elmer). The excitation wavelength was 530 nm and the emission wavelength […].
The B16F10 cells (ATCC, CRL-6475) were sown at a concentration of 300-500 cells/well in 100 μl of growth medium (DMEM with phenol red, 10% FCS) on 96-well microtitre plates.
(§2) After overnight incubation at 37° C., the fluorescence values (CI values) were determined. Then the plates were treated with various substance dilutions (1E-5 M, 3E-6 M, 1E-6 M, 3E-7 M, 1E-7 M, 3E-8 M, 1E-8 M) and incubated at 37° C. over 96 (MOLM-13, B16F10, MDA-MB-431 cells), 120 (MOLP-8 cells) or 168 (LAPC-4 cells) hours. Subsequently, the fluorescence values were determined (CO values). For the data analysis, the CI values were subtracted from the CO values and the results were compared between cells which had been treated with various dilutions of the substance or only with buffer solution. The IC50 values (substance concentration needed for 50% inhibition of cell proliferation) were calculated therefrom.
(§3) The substances were tested in the cell lines in Table 1, which represent the indications specified by way of example: […]
For orientation: Alamar Blue is a resazurin reagent that responds to reducing activity.

The next experiment deals with MDA-MB-231 cells. In words: Cell proliferation assay (alamarBlue), MDA-MB-231. It counts as cell-based. The settings on record: Homo sapiens, mammary carcinoma, 96 hours incubation, read-out: Breast MDA-MB-231 IC50. The procedure:
as §1
The MDA-MB-231 cells (DSMZ, ACC 732) were sown at a concentration of 4000 cells/well in 100 μl of growth medium (DMEM/Ham's F12 medium, 10% FCS) on 96-well microtitre plates.
as §2, §3

For another experiment, the system named is MOLP-8 cells. In words: Cell proliferation assay (alamarBlue), MOLP-8. It counts as cell-based. The settings on record: Homo sapiens, multiple myeloma, 120 hours incubation. The protocol:
as §1
The MOLP-8 cells (DSMZ, ACC 569) were sown at a concentration of 4000 cells/well in 100 μl of growth medium (RPMI1640, 20% FCS) on 96-well microtitre plates.
as §2, §3

A further experiment deals with LAPC-4 cells. In words: Cell proliferation assay (alamarBlue), LAPC-4. Format: cell-based. The settings on record: Homo sapiens, LAPC4, prostate cancer, 1 nM methyltrienolone, 168 hours incubation. The procedure:
as §1
The LAPC-4 cells (ATCC, PTA-1441TM) were sown at a concentration of 4000 cells/well in 100 μl of growth medium (RPMI1640, 2 mM L-glutamine, 10% cFCS) on 96-well microtitre plates. One day later, the LAPC-4 cells were treated with 1 nM methyltrienolone and various substance dilutions.
as §2, §3

For the next experiment, the system named is MOLM-13 cells. In words: Cell proliferation assay (alamarBlue), MOLM-13. Format: cell-based. The settings on record: Homo sapiens, acute myeloid leukaemia, 96 hours incubation. The protocol:
as §1
The MOLM-13 cells (DSMZ, ACC 554) were sown at a concentration of 4000 cells/well in 100 μl of growth medium (RPMI1640, 10% FCS) on 96-well microtitre plates.
as §2, §3

A further experiment concerns the target T1, BRD4 (BD1) (Homo sapiens, UniProt O60885).
T1 construct: N-terminally His6-tagged BRD4 (BD1) (amino acids 67-152, longer constructs also being possible, preferably amino acids 44-168); made in house; host or cells: E. coli
In words: Binding assay BRD4/acetylated peptide H4 (TR-FRET protein-protein interaction assay). The source says: To assess the BRD4 binding strength of the substances described in this application, the ability thereof to inhibit the interaction between BRD4 (BD1) and acetylated histone H4 in a dose-dependent manner was quantified. For this purpose, a time-resolved fluorescence resonance energy transfer (TR-FRET) assay was used, which measures the binding between N-terminally His6-tagged BRD4 (BD1) (amino acids 67-152, longer constructs also being possible, preferably amino acids 44-168) and a synthetic acetylated histone H4 (Ac-H4) peptide with sequence […]-biotin. The recombinant BRD4 protein produced in-house according to Filippakopoulos et al., Nature, 2010, 468:1119-1123 was expressed in E. coli and purified by means of (Ni-NTA) affinity and (Sephadex G-75) size exclusion chromatography. The Ac-H4 peptide can be purchased, for example, from Biosyntan (Berlin, Germany). […] For this purpose, 100-fold concentrated solutions in DMSO were prepared by serial dilutions (1:3.4) of a 2 mM stock solution into a clear, 384-well microtitre plate (Greiner Bio-One, Frickenhausen, Germany). From this, 50 nl were transferred into a black test plate (Greiner Bio-One, Frickenhausen, Germany). […] This was followed by a 10-minute incubation step at 22° C. for the pre-equilibration of putative complexes between BRD4 and the substances. […] The mixture was then incubated in the dark at 22° C. for one hour and then at 4° C. for at least 3 hours and for no longer than overnight. The formation of BRD4/Ac-H4 complexes was determined by the measurement of the resonance energy transfer from the streptavidin-Eu cryptate to the anti-6His-XL665 antibody present in the reaction. For this purpose, the fluorescence emission was measured at 620 nm and 665 nm after excitation at 330-350 nm in a TR-FRET measuring instrument, for example a Rubystar or Pherastar (both from BMG Lab Technologies, Offenburg, Germany) or a Viewlux (Perkin-Elmer). The ratio of the emissions at 665 nm and at […] was taken as an indicator of the amount of BRD4/Ac-H4 complexes formed. The data (ratios) obtained were normalized, with 0% inhibition corresponding to the mean from the measurements for a set of controls (typically 32 data points) in which all the reagents were present. In these, in place of test substances, 50 nl of DMSO (100%) were used Inhibition of 100% corresponded to the mean from the measurements for a set of controls (typically 32 data points) in which all the reagents except BRD4 were present. The IC50 was determined by regression analysis based on a 4-parameter equation (minimum, maximum, IC50, Hill; […])).
Background: In TR-FRET formats the signal depends on donor and acceptor labels being close together.

Setting [1] is: BRD4 (BD1) / acetylated histone H4 peptide, TR-FRET, read-out: IC50 (BRD4).

Like-named read-outs stand apart in the source and are kept apart here.

With `Cc1c2c(cn1C)-n1c(C)nnc1[C@H](CC(=O)N1CC3(CCS3(=O)=O)C1)N=C2c1ccc(Cl)cc1` [Example 3, (−)-2-[(4S)-6-(4-Chlorophenyl)-1,7,8-trimethyl-4,8-dihydropyrrolo[3,4-f][1,2,4]triazolo[4,3-a][1,4]diazepin-4-yl]-1-(1,1-dioxo-1λ^6-1-thia-6-azaspiro[3.3]hept-6-yl)ethan-1-one], the IC50 was found to be 160 nM with B16F10 cells; 300 nM with MDA-MB-231 cells; 140 nM in the experiment with MOLP-8 cells; 110 nM in the experiment with LAPC-4 cells; 110 nM in the experiment with MOLM-13 cells; 20 nM at BRD4 (BD1).
Turning to `Cc1c2c(cn1C)-n1c(C)nnc1[C@H](CC(=O)N1CC3CCC1CC3)N=C2c1ccc(Cl)cc1` (single isomer, unassigned; (-)) [Example 14], the IC50 with LAPC-4 cells was determined as 520 nM; with MOLM-13 cells it was 690 nM; on BRD4 (BD1) (setting [1]) it was 100 nM.
Regarding `Cc1c2c(cn1C)-n1c(C)nnc1[C@H](CC(=O)N1CC3(COC3)C1)N=C2c1ccccc1` [Example 2, 2-(1,7,8-Trimethyl-6-phenyl-4,8-dihydropyrrolo[3,4-f][1,2,4]triazolo[4,3-a][1,4]diazepin-4-yl)-1-(2-oxa-6-azaspiro[3.3]hept-6-yl)ethan-1-one], the IC50 with B16F10 cells came out at 2010 nM; in the experiment on LAPC-4 cells, 920 nM; in the experiment with MOLM-13 cells it was 900 nM; at BRD4 (BD1) (setting [1]), 140 nM.
Regarding `Cc1c2c(cn1C)-n1c(C)nnc1[C@H](CC(=O)N1CC3(CCOCC3)C1)N=C2c1ccc(Cl)cc1` [Example 11, (−)-2-[(4S)-6-(4-Chlorophenyl)-1,7,8-trimethyl-4,8-dihydropyrrolo[3,4-f][1,2,4]triazolo[4,3-a][1,4]diazepin-4-yl]-1-(7-oxa-2-azaspiro[3.5]non-2-yl)ethanone], on BRD4 (BD1) (setting [1]), the IC50 worked out at 690 nM.
Take `Cc1c2c(cn1C)-n1c(C)nnc1[C@H](CC(=O)N1CCC3(CC1)COC3)N=C2c1ccc(Cl)cc1` [Example 12, (−)-2-[(4S)-6-(4-Chlorophenyl)-1,7,8-trimethyl-4,8-dihydropyrrolo[3,4-f][1,2,4]triazolo[4,3-a][1,4]diazepin-4-yl]-1-(2-oxa-7-azaspiro[3.5]non-7-yl)ethanone]: the IC50 in the experiment with MOLM-13 cells was determined as 480 nM; on BRD4 (BD1) (setting [1]), 120 nM.
With `Cc1c2c(cn1C)-n1c(C)nnc1[C@H](CC(=O)N1CC3(COC3)C1)N=C2c1ccc(Cl)cc1` [Example 1, (−)-2-[(4S)-6-(4-Chlorophenyl)-1,7,8-trimethyl-4,8-dihydropyrrolo[3,4-f][1,2,4]triazolo-[4,3-a][1,4]diazepin-4-yl]-1-(2-oxa-6-azaspiro[3.3]hept-6-yl)ethan-1-one], the IC50 with B16F10 cells was found to be 1140 nM; in the experiment on LAPC-4 cells it was 680 nM; in the experiment on MOLM-13 cells it was 710 nM; on BRD4 (BD1) (setting [1]), 150 nM.
As to `Cc1nnc2n1-c1cn(C)nc1C(c1ccc(Cl)cc1)=N[C@H]2CC(=O)N1CC2(COC2)C1` [Example 4, 2-[(4S)-6-(4-Chlorophenyl)-1,8-dimethyl-4,8-dihydropyrazolo[3,4-f][1,2,4]triazolo[4,3-a][1,4]diazepin-4-yl]-1-(2-oxa-6-azaspiro[3.3]hept-6-yl)ethan-1-one], the IC50 on BRD4 (BD1) (setting [1]) was determined as 460 nM.
For `Cc1nnc2n1-c1cn(C)nc1C(c1ccc(Cl)cc1)=N[C@H]2CC(=O)N1CC2(CCS2(=O)=O)C1` [Example 15, 2-[(4S)-6-(4-Chlorophenyl)-1,8-dimethyl-4,8-dihydropyrazolo[3,4-f][1,2,4]triazolo[4,3-a][1,4]diazepin-4-yl]-1-(1,1-dioxido-1-thia-6-azaspiro[3.3]hept-6-yl)ethanone], the IC50 in the experiment with MOLM-13 cells was found to be 2700 nM; at BRD4 (BD1) (setting [1]) it was 800 nM.
As to `Cc1c2c(cn1C)-n1c(C)nnc1[C@H](CC(=O)N1CC3CC1CO3)N=C2c1ccc(Cl)cc1` (stereo in doubt) [Example 7, (−)-2-[(4S)-6-(4-Chlorophenyl)-1,7,8-trimethyl-4,8-dihydropyrrolo[3,4-f][1,2,4]triazolo[4,3-a][1,4]diazepin-4-yl]-1-{(1S,4S)-2-oxa-5-azabicyclo[2.2.1]hept-5-yl}ethan-1-one], the IC50 on BRD4 (BD1) (setting [1]) was determined as 210 nM.
`Cc1c2c(cn1C)-n1c(C)nnc1[C@H](CC(=O)N1CC3CCC(C3)C1)N=C2c1ccc(Cl)cc1` (single isomer, unassigned; (-)) [Example 10]: the IC50 in the experiment with MOLM-13 cells stood at 1460 nM; on BRD4 (BD1) (setting [1]) it was 310 nM.
Take `Cc1c2c(cn1C)-n1c(C)nnc1[C@H](CC(=O)N1CCOC3(CCCCC3)C1)N=C2c1ccc(Cl)cc1` [Example 9, (−)-2-[(4S)-6-(4-Chlorophenyl)-1,7,8-trimethyl-4,8-dihydropyrrolo[3,4-f][1,2,4]triazolo[4,3-a][1,4]diazepin-4-yl]-1-(1-oxa-4-azaspiro[5.5]undec-4-yl)ethanone]: the IC50 in the experiment with LAPC-4 cells stood at 1070 nM; in the experiment with MOLM-13 cells, 1050 nM; at BRD4 (BD1) (setting [1]), 80 nM.
For `Cc1c2c(cn1C)-n1c(C)nnc1[C@H](CC(=O)N1CCC3(COC3)C1)N=C2c1ccc(Cl)cc1` [Example 13, (−)-2-[(4S)-6-(4-Chlorophenyl)-1,7,8-trimethyl-4,8-dihydropyrrolo[3,4-f][1,2,4]triazolo[4,3-a][1,4]diazepin-4-yl]-1-(2-oxa-6-azaspiro[3.4]oct-6-yl)ethanone] the same measures were 230 nM, 410 nM and 70 nM.
Turning to `Cc1c2c(cn1C)-n1c(C)nnc1[C@H](CC(=O)N1C3CCC1CC(=O)C3)N=C2c1ccc(Cl)cc1` (single isomer, unassigned; (-)) [Example 6], the half-inhibitory concentration (IC50) was found to be 890 nM in the experiment on B16F10 cells, 520 nM in the experiment on LAPC-4 cells, 1240 nM in the experiment on MOLM-13 cells and 240 nM on BRD4 (BD1) (setting [1]).
With `Cc1c2c(cn1C)-n1c(C)nnc1[C@H](CC(=O)N1CC3CCC(C1)O3)N=C2c1ccc(Cl)cc1` (single isomer, unassigned; (-)) [Example 8], the IC50 in the experiment on LAPC-4 cells was determined as 540 nM; in the experiment on MOLM-13 cells, 750 nM; at BRD4 (BD1) (setting [1]), 190 nM.
